System: HPV16 E7 protein
Experiment: Western blot of E7 steady state level in CaSki cells
Format: cell-based
Conditions: 10 μM, up to 24 hours
Method: B) For cells in cell culture the following procedure for the preparation of a total cell extract is used. Freshly seeded cells are grown for 24 hours to obtain 65-75% confluency (corresponds for CaSki cells to a plating of approx. 2×10^6 cells/10 cm Ø cell culture dish). Cell culture dishes with medium are out on ice for 5 minutes.
Lysed cells are scraped off the dish and transfers to microcentrifuge tubes, followed by 2×10 sec sonication to complete cell lysis at room temperature. The samples are heated at 96° C. for 10 min and centrifuged for 5 min at 12000 g at room temperature.
Endogenous E7 proteins are rigid, tightly folded molecules and are bound only transiently onto […] membranes during protein blotting procedures, in particular employing semidry methods. Thus, for protein blotting a buffer system containing 40% (v/v) of Methanol is used. These buffers tend to be unstable and therefore freshly prepared solutions need to be used. E7 antibodies are used in TBET at pH7.8. Under these conditions western blot transfer is not complete for most other proteins. If staining of different proteins of the same gel is done, the gel is divided prior to blotting, 40% Methanol is used in the transfer buffer for E7 and a transfer buffer containing 20% Methanol is used for most of the other markers. […]

`CN1CCC(CN2C(=O)c3ccccc3[C@H](C(=O)Nc3cccc(N4CCN(C)CC4)c3)[C@H]2c2ccc(C(F)(F)F)cc2)CC1` [VSP035, (3S,4S)-N-[3-(4-methylpiperazin-1-yl)phenyl]-2-[(1-methylpiperidin-4-yl)methyl]-1-oxo-3-[4-(trifluoromethyl)phenyl]-1,2,3,4-tetrahydroisoquinoline-4-carboxamide] was tested, and the “HPV16 E7 protein level, time course” value was “steady decline over time” and the “HPV16 E7 protein level, time course” value (listed as Vsp035) was “stable e7 reduction”.
